Patent US11673853B2, “Small molecule AMPK activators” (University of Pittsburgh—Of the Commonwealth System of …, priority 2016, dated 2023)

Assays:
[1] = tested on: C57BL6 mice; assay: LPS-induced sepsis model; format: in vivo; conditions: i.p., LPS (E. coli) 3 mg/kg i.p. after 10 min, blood at 2 h
Description: FIG. 5. C57BL6 mice were administered i.p. vehicle, 0.04, 0.2, 1 or 5 mg/kg of Compound 12. After 10 min, mice were given LPS (E. coli, 3 mg/kg) through an i.p. injection and, after 2 h, mice were euthanized and blood was collected for IL1-β, IL-6 and TNFα measurements. Shown in panels (D)-(F) is % inhibition of cytokine levels as a function of drug dose. The data represent n=3 mice/group at each dose. Protein (A), cell counts (B), bacterial count (C), and presence of AMPK and pAMPK (G) were also determined.
(§1) FIG. 11. (A-B.) C57BL6 mice were administered i.p. vehicle, 0.08, 0.4, 2 or 10 mg/kg of Compound 23. After 10 min, mice were given LPS (E. coli, 3 mg/kg) through an i.p. injection and, after 2 h, mice were euthanized and blood collected for IL-6 and TNFα measurements. Shown in panels (A-B.) are the cytokine levels as a function of drug dose. The data represent n=3 mice/group at each dose. (C-G) Compound 23 (2 or 10 mg/kg) was administered to mice though an i.p. injection, and mice were immediately challenged with LPS (E. coli, 3 mg/kg, i.t.) or without (control, CON) for an additional 18 h. Mice were then euthanized and lungs were lavaged with saline, harvested, and then homogenized. Lavage protein (C), cell counts (D) and cytokine secretions (E-G) were measured. The data are representative of data from n=5 mice/group, *P<0.05 versus vehicle.
In a sepsis model, Compound 12 was administered to mice at various doses through an i.p. injection, and, after 10 min, the mice were given LPS (E. coli; 3 mg/kg i.p.). Two hours later, the mice were euthanized, and blood was collected and assayed for IL-1β, IL-6 and TNFα cytokine levels.
(§2) Compound 23 was tested in a sepsis model. Compound 23 was administered to mice at various doses through an i.p. injection, and 10 min later, mice were given LPS (E. coli; 3 mg/kg i.p.). After 2 h, mice were euthanized and blood was collected and assayed for IL-6 and TNFα cytokine levels. […] Finally, Compound 23 was tested in a pneumonia model using LPS endotoxin. […] Thus Compound 23 protects the lung against LPS induced lung injury.

[2] = tested on: mice; assay: LPS pneumonia model; format: in vivo; conditions: 2 or 10 mg/kg i.p., LPS 3 mg/kg i.t., 18 h
Description: FIG. 8. Compound 12 (2 or 10 mg/kg) was administered to mice though an i.p. injection, and mice were immediately challenged with LPS (E. coli, 3 mg/kg, i.t.) or without (control, CON) for an additional 18 h. Mice were then euthanized and lungs were lavaged with saline, harvested, and then homogenized. Lavage protein (H), cell counts (I) and cytokine secretions (E-G) were measured. Lungs were homogenized before being assayed by immunoblotting. The data are representative of data from n=5-6 mice/group, *P<0.05 versus vehicle. Serum cytokines (A-C) and peritoneal bacteria (D) were also measured.
as §1
Compound 12 was tested in two pneumonia model using Pseudomonas or LPS endotoxin.
as §2

[3] = tested on: phospho-AMPK; assay: phospho-AMPK / p-ACC immunoblotting in Beas2B cells (in vitro studies); format: cell-based, Human
Description: FIG. 3. (A) Beas2b cells were cultured in DMEM 2% media with glucose for 24 h before switching to glucose-free media. Cells were then exposed to either DMSO or Compound 1 (2 μM) in a time course before being collected for immunoblotting. (B) Beas2B cells were exposed to Compound 1 for 18 h at various doses before being collected for immunoblotting. (C) Beas2b cells were cultured in DMEM 2% media with glucose for 24 h before switching to glucose-free media. Cells were then exposed to AICAR at various doses with or without Compound 1 co-treatment. After 18 h, cells were collected before being assayed by immunoblotting.
FIG. 4. (A) Beas2b cells were cultured in DMEM 2% media with glucose for 24 h before switching to glucose-free media. Cells were then exposed to Compound 12 in a dose dependent manner for 18 h before being collected for immunoblotting. (B) Beas2b cells were cultured in DMEM 2% media with glucose for 24 h before Compound 12 treatment in a dose dependent manner. After 18 h, cells were then collected for immunoblotting. (C) Beas2b cells were cultured in DMEM 2% media with glucose for 24 h before switching to glucose-free media. Cells were then exposed to Compound 12 for 18 h before being collected for mRNA analysis. (D) 50K PBMC cells were cultured in 96 well plates before being exposed to Compound 12 for 4 h. Cells were then treated with LPS (10 ng/ml) for additional 2 h. Media were then collected and IL-1b concentration was determined by ELISA.
FIG. 9. (A) Beas2b cells were cultured in DMEM 2% media with glucose for 24 h before switching to glucose-free media. Cells were then exposed to Compound 23 or metformin in a dose dependent manner for 18 h before being collected for immunoblotting. (B) Beas2b cells were cultured in DMEM 2% media with glucose for 24 h before switching to glucose-free media and treated with Compound 12 or Compound 23 in a dose dependent manner. After 6 h, cells were then collected for immunoblotting. (C) Beas2b cells were cultured in DMEM 2% media with glucose for 24 h before switching to glucose-free media and treated with Compound 12 or Compound 23 in a dose dependent manner. After 18 h, cells were then collected for immunoblotting. (D) Beas2b cells were transfected with AMPK phospho mimic T172D or phospho dead T172A mutant for 24 h. Cells were then switched to glucose-free media and exposed to Compound 23 in a dose or time dependent manner before being collected for immunoblotting. (E) Beas2b cells were transfected with control siRNA or Fbxo48 siRNA for 48 h before switching to glucose-free media. Cells were then exposed to Compound 23 in a dose dependent manner before being collected for immunoblotting. (F) Compound 23 chemical structure.
Compound 1 was studied in in vitro assays using Beas2B cells. […]
Compound 23 was tested in in vitro studies using Beas2B cells and compared with metformin.

SMILES	ID50 IL-1β [1]	ID50 IL-6 [1]	ID50 TNF-α [1]	lavage cell counts [2]	lavage cytokine release [2]	lavage protein concentration [2]	pAMPK levels within the lung tissue ([2]; immunoblotting)	concentration effectively increasing phospho-AMPK and downstream p-ACC levels ([3]; Beas2b, with or without glucose, 18 h)	level of AMPK T172D phospho mimic mutant ([3]; Beas2b transfected with T172D mutant, glucose-free media)	pAMPK and pACC levels after Fbxo48 knockdown ([3]; Beas2b, Fbxo48 siRNA 48 h, glucose-free media)	activity on pAMPK compared to Compound 12 ([3]; Beas2b, glucose-free media, 6 h and 18 h)	concentration range increasing pAMPK phosphorylation and downstream substrate ACC phosphorylation ([3]; Beas2b, glucose-free media, 18 h)
OC(COc1ccc(F)cc1)CN(Cc1ccccc1)Cc1ccccc1 (centres unmarked) [Compound 12]	0.1 mg/kg	0.4 mg/kg	0.4 mg/kg	significantly decreased	significantly decreased	significantly decreased	effectively increased	100 to 500 nM	–	–	–	–
OC(COc1ccc(C(F)(F)F)cc1)CN(Cc1ccccc1)Cc1ccccc1 (centres unmarked) [Compound 23]	–	0.4 mg/kg	0.4 mg/kg	substantially decreased	effectively reduces	substantially decreased	–	–	drastically increases	not able to further activate the pathway	comparable or slightly improved activity	submicromolar
